In test [1] the test system is M. tuberculosis DNA gyrase GyrA, A90V. The class given is cell-based, Mycobacterium tuberculosis.
The subject of test [2] is M. tuberculosis DNA gyrase GyrA, G88C. The class given is cell-based, Mycobacterium tuberculosis.
Test [3] deals with M. tuberculosis ATCC 3583 (INH resistance). Briefly: microbe, parasite or virus in culture. The class given is cell-based. The settings on record: Mycobacterium tuberculosis, ATCC3583, read-out: MIC90, ATCC 3583 (INH resistance).
Test [4] concerns M. tuberculosis ATCC 35838 (Rif resistance). Description: microbe, parasite or virus in culture. Type of test: cell-based. Conditions: Mycobacterium tuberculosis, ATCC35838.
The test system of test [5] is M. tuberculosis ATCC 35826 (CS resistance). Briefly: microbe, parasite or virus in culture. The class given is cell-based. Conditions: Mycobacterium tuberculosis, ATCC35826.
For test [6], the system named is M. tuberculosis MmpL3, G253E. Type of test: cell-based, Mycobacterium tuberculosis.
Test [7] concerns M. tuberculosis MmpL3, G758A/G253E. Type of test: cell-based, Mycobacterium tuberculosis.
Test [8] relates to M. tuberculosis QcrB D317T. Type of test: cell-based, Mycobacterium tuberculosis.

Converted amounts (≈) assume the structure as drawn.

As to `Cc1nnc(-c2noc3c(F)c4c(cc23)CC2(C(=O)NC(=O)NC2=O)[C@H]2[C@H](C)O[C@H](C)CN42)o1` [Compound 22], the “MIC90, DNA gyrase GyrA, A90V” value in test [1] worked out at 0.98 µM (≈ 0.461 µg/mL). In addition, the “MIC90, DNA gyrase GyrA, G88C” value in test [2] came to 0.98 µM (≈ 0.461 µg/mL).

Take `NNC(=O)c1ccncc1` [Isoniazid, isoniazid]: the MIC90 in test [3] was > 62500 nM; in test [4], 7.8 µM (≈ 1.07 µg/mL); in test [5] it was 3.4 µM (≈ 0.466 µg/mL).

Regarding `C[C@H]1COc2c(N3CCN(C)CC3)c(F)cc3c(=O)c(C(=O)O)cn1c23` [Levofloxacin], the “MIC90, DNA gyrase GyrA, A90V” value in test [1] is 16 µM (≈ 5.78 µg/mL). The “MIC90, DNA gyrase GyrA, G88C” value in test [2] was determined as 2.0 µM (≈ 0.723 µg/mL).

Regarding `COc1c(N2C[C@@H]3CCCN[C@@H]3C2)c(F)cc2c(=O)c(C(=O)O)cn(C3CC3)c12` [Moxifloxacin, moxifloxacin], in test [1], the “MIC90, DNA gyrase GyrA, A90V” value came out at 7.8 µM (≈ 3.13 µg/mL). For the same compound, in test [2], the “MIC90, DNA gyrase GyrA, G88C” value came out at 0.49 µM (≈ 0.197 µg/mL).

With `CO[C@H]1/C=C/O[C@@]2(C)Oc3c(C)c(O)c4c(O)c(c(/C=N/N5CCN(C)CC5)c(O)c4c3C2=O)NC(=O)/C(C)=C\C=C\[C@H](C)[C@H](O)[C@@H](C)[C@@H](O)[C@@H](C)[C@H](OC(C)=O)[C@@H]1C` [Rif, rifampicin], in test [6], the “MIC90, MmpL3, G253E” value turned out to be 0.001 µM (≈ 0.000823 µg/mL). In addition, the “MIC90, MmpL3, G758A/G253E” value in test [7] is 0.001 µM (≈ 0.000823 µg/mL). In addition, in test [8], the “MIC90, QcrB D317T” value was determined as 4.6 nM (≈ 0.00379 µg/mL). Also, the results for the MIC90 in test [3], in test [4] and in test [5] were 6 nM (≈ 0.00494 µg/mL), > 0.1 µM and 0.001 µM (≈ 0.000823 µg/mL), respectively. Also, the “MIC90, DNA gyrase GyrA, A90V” value in test [1] was 0.0023 µM (≈ 0.00189 µg/mL). Besides, the “MIC90, DNA gyrase GyrA, G88C” value in test [2] was 0.0023 µM (≈ 0.00189 µg/mL).

Turning to `CC(C)=CCC/C(C)=C/CNCCNC1C2CC3CC(C2)CC1C3` (stereo not shown) [SQ109], the “MIC90, MmpL3, G253E” value in test [6] turned out to be 2.0 µM (≈ 0.661 µg/mL). Besides, the “MIC90, MmpL3, G758A/G253E” value in test [7] worked out at 2.0 µM (≈ 0.661 µg/mL).

The values are drawn from paper PMC9017349, “Spiropyrimidinetriones: a Class of DNA Gyrase Inhibitors with Activity against Mycobacterium tuberculosis and without Cross-Resistance to Fluoroquinolones” (Antimicrobial Agents and Chemotherapy, 2022).
